Experimental data taken from US7396854B2, “Use of serotonergic compound for a method of treatment of hot flushes in post-menopausal women” (N.V. Organon, priority 2001, dated 2008).
Where a name gives a salt, the structure may show the parent alone.

Test system: Male rats (HSD/Cpb:WU)
Assay: telemetric body temperature measurements in freely moving rats (rise in core body temperature after manipulation for injection)
Type: in vivo
Conditions: subcutaneous, 22 mg/kg
Text: Male rats (HSD/Cpb:WU, Harlan Sprague Dawley, Zeist, The Netherlands), weighing 350-480 g, were used. The rats were implanted with a Physio Tel TA11CTA-F40 Implant (Data Sciences International) under pentobarbital anesthesia. After surgery the rats were housed individually in a type II clear MACROLON™ cage (23×17××14 cm). The cages were placed on receivers (RLA 1020). After a recovery and adaptation period of at least one week the rats were used for the experiments. On the experimental day, body temperature, heart rate and locomotor activity was monitored for 30 minutes prior to injection of vehicle or test compound. This period provides a baseline core body temperature relative to which the changes of body temperature after the manipulation of the rats for injection are expressed. After 30 minutes the rats were injected subcutaneously with vehicle or test compound and the same parameters were measured for at least 60 minutes. Immediately after injection the core body temperature rises. Compounds inhibiting this rise in temperature reveal an inhibiting effect on acute body heat production. Results obtained with other parameters, such as the effect on heart rate and on locomotor activity are not presented here. 6 animals were used for measurement of each dose of compound
Data were analyzed using Dataquest IV Data Acquisition System Ver 2.2.
Compounds were dissolved in NaCl 0.9% (m/v) in water as vehicle for subcutaneous injection.

CNCCC(Oc1ccc(C(F)(F)F)cc1)c1ccccc1 (stereo not drawn) [Fluoxetine, Fluoxetine HCl, reference compound]
absolute mean increments in body temperature relative to baseline during 30 minutes prior to manipulation (5 minutes after injection): 0.28 °C | absolute mean increments in body temperature relative to baseline during 30 minutes prior to manipulation (10 minutes after injection): 0.59 °C | absolute mean increments in body temperature relative to baseline during 30 minutes prior to manipulation (15 minutes after injection): 0.71 °C | absolute mean increments in body temperature relative to baseline during 30 minutes prior to manipulation (20 minutes after injection): 0.72 °C | absolute mean increments in body temperature relative to baseline during 30 minutes prior to manipulation (25 minutes after injection): 0.66 °C | absolute mean increments in body temperature relative to baseline during 30 minutes prior to manipulation (30 minutes after injection): 0.56 °C | absolute mean increments in body temperature relative to baseline during 30 minutes prior to manipulation (35 minutes after injection): 0.55 °C | absolute mean increments in body temperature relative to baseline during 30 minutes prior to manipulation (40 minutes after injection): 0.45 °C | absolute mean increments in body temperature relative to baseline during 30 minutes prior to manipulation (45 minutes after injection): 0.38 °C | absolute mean increments in body temperature relative to baseline during 30 minutes prior to manipulation (50 minutes after injection): 0.27 °C | absolute mean increments in body temperature relative to baseline during 30 minutes prior to manipulation (55 minutes after injection): 0.29 °C | absolute mean increments in body temperature relative to baseline during 30 minutes prior to manipulation (60 minutes after injection): 0.85 °C
